Measured values published in PMC8921834, “Septins tune lipid kinase activity and PI(4,5)P2 turnover during G-protein–coupled PLC signalling in vivo” (Life Science Alliance, 2022).

Biological target: T1, dPIP5K^L (Drosophila melanogaster, UniProt A0A6M3Q9L5)
T1 construct: gene PIP5K59B; full-length long isoform, 897 residues, about 100 kD; cDNA from fly retinae in pUAST-attB, transiently expressed in Drosophila S2R+ cells; lysate assayed
Assay: in vitro lipid kinase assay, LC-MS/MS of product:substrate ratio
Assay type: biochemical
Conditions: S2R+ lysate 10 μg; 600 pmol PI4P with phosphatidylserine micelles; ATP (40 μM in 2x buffer), pH 7.4, 30 °C, 30 min

T1 sequence (A0A6M3Q9L5 1-891): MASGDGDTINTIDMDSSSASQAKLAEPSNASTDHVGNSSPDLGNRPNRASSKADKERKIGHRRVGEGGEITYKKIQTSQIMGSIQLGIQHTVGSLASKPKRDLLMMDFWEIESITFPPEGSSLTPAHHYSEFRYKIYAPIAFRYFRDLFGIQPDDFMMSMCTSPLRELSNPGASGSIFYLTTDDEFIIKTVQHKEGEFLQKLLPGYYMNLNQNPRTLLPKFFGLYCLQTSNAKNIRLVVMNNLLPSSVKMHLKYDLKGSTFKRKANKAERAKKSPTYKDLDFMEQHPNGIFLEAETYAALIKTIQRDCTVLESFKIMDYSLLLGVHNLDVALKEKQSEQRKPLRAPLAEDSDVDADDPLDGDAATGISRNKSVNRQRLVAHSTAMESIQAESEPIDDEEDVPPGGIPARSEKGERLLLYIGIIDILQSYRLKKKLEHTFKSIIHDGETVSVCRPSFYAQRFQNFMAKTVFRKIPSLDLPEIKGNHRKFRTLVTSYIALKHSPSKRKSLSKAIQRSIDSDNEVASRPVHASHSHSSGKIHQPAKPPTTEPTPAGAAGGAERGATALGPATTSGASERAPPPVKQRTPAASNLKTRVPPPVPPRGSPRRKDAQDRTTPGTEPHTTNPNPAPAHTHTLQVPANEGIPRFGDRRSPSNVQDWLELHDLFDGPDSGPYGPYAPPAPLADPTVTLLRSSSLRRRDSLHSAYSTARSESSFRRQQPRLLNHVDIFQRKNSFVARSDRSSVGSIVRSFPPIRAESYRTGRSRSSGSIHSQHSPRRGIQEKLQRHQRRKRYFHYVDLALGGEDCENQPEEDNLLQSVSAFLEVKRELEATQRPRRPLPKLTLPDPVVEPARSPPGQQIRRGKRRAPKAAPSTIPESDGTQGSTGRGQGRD

For `CCCCC/C=C\C/C=C\C/C=C\C/C=C\CCCC(=O)O[C@H](COC(=O)CCCCCCCCCCCCCCCC)COP(=O)(O)O[C@H]1[C@H](O)[C@@H](O)[C@H](OP(=O)(O)O)[C@@H](O)[C@H]1O` [37:4 PI4P], the response ratio was “response ratio of dPIP5K^L transfected lysates was significantly higher”.
